The term Kd denotes the free concentration of one partner at which half of the binding sites on the other are occupied at equilibrium, for simple one-to-one binding.

For assay [1], the system named is influenza A/PR/8/34 (PR8). As to conditions: ref Shirey et al., 2013; cited from earlier work.
Assay [2] deals with TLR7. The assay can be described thus: R848. In kind it is cell-based, mouse. As to conditions: murine macrophages; R848 (2.85 μM); Figure 2E, F.
The target of assay [3] is NF-kB activator 1 CC loop decoy peptide SEFIR CC loop (Homo sapiens) (UniProt O43734). The assay can be described thus: SPR. As to conditions: cited from earlier work.

IL-17RA, sequence (Q96F46 33-866): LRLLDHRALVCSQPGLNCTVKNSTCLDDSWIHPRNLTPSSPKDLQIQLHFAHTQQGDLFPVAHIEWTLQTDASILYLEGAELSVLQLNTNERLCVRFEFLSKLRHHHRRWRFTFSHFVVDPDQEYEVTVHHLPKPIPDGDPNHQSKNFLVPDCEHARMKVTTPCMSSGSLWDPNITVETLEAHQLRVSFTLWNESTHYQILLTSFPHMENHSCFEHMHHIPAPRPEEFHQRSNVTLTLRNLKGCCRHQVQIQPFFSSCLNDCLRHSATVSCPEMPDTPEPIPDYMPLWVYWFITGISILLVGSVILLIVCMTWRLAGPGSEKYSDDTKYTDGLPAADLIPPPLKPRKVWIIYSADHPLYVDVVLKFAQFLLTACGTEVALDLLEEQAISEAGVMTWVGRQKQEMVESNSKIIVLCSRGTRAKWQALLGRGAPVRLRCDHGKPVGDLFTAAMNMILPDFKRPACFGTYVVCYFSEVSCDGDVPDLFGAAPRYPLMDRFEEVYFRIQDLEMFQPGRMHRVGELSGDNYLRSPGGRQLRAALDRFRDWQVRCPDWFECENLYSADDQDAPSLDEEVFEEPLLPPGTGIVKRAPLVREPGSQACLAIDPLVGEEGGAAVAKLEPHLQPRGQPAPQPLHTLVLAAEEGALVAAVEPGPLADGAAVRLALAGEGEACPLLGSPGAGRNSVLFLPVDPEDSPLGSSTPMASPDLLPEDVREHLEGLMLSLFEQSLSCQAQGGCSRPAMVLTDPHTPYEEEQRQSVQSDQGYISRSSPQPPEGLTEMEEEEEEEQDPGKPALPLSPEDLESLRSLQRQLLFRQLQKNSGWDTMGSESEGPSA

For `CCCCCC/C=C\CCCCCCCCCC(=O)N[C@H]1[C@H](OC[C@H]2O[C@H](OP(=O)(O)O)[C@H](NC(=O)CC(=O)CCCCCCCCCCC)[C@@H](OCCCCCCCCCC)[C@@H]2O)O[C@H](COC)[C@@H](OP(=O)(O)O)[C@@H]1OCC[C@@H](CCCCCCC)OC` [Eritoran], in assay [1], the “Protection from PR8 infection, TLR2−/− mice” value was “could not be protected” and the “Protection from PR8 infection, mice” value was “protected mice from PR8 infection”. For the molecule `CCOCc1nc2c(N)nc3ccccc3c2n1CC(C)(C)O` [R848], the “Induction of TNF-α and IL-6” value in assay [2] was “induced robust production”. As for IL-17RA (from UniProt Q96F46), in assay [3], the Kd is 117 µM.
